According to US11697850B2, “Polymorphism in the Apo(a) gene predict responsiveness to acetylsalicylic acid treatment” (Celera Corporation, priority 2007, dated 2023):

Assay: Women's Health Study (WHS): randomized trial of low dose aspirin vs placebo, incident cardiovascular events stratified by rs3798220 genotype or Lp(a) level
Assay type: in vivo, human
Conditions: for relative risk reduction of major vascular events with aspirin: aspirin 100 mg orally on alternate days vs placebo, 10-year follow-up
Excerpt: The genotype of this polymorphism was therefore determined among 26,274 initially healthy women from the Women's Health Study (WHS) who had been randomly allocated to low dose aspirin or placebo and then followed over a 10-year period for incident cardiovascular events (31). This setting afforded the opportunity for prospective assessment not only of rs3798220 association with Lp(a) levels and vascular risk, but also of an interaction between aspirin and genetic effects on risk. Although most of the study participants were Caucasian, there were sufficient numbers of non-Caucasian participants to address population-specific influences on associations between rs3798220 and Lp(a) levels, as have been found in previous comparisons of other apolipoprotein(a) variants among populations with different biogeographic ancestry (32-36).
Study Populations: The primary study population derived from the Women's Health Study (WHS), a randomized trial of aspirin (100 mg orally on alternate days) and placebo in the primary prevention of cardiovascular disease conducted among initially healthy women aged at least 45 at enrollment who were followed over a 10 year period (1, 2). At enrollment, participants provided baseline clinical and demographic information. 28,345 WHS participants provided blood for plasma and genetic analysis. Among these samples, baseline Lp(a) levels were measured with a turbidimetric assay that is not affected by the number of Kr IV type-2 repeats on the Hitachi 917 analyzer (Roche Diagnostics, Indianapolis, Ind.) (3). Baseline measurement of other lipid fractions, inflammation biomarkers, and other plasma components has been described previously (4). Total incident cardiovascular events adjudicated during the follow-up period included those typically associated with plaque rupture and vessel occlusion such as myocardial infarction (MI), ischemic stroke, and cardiovascular death, as well as those typically associated with progression of underlying atherosclerotic disease defined as revascularization by percutaneous transluminal coronary angioplasty (PTCA) or coronary artery bypass graft (CABG). Major incident cardiovascular events were defined as myocardial infarction, ischemic stroke, or cardiovascular death. In addition, the association between rs3798220 and plasma Lp(a) levels was evaluated in an independent group of 1058 Caucasian men who had participated in the Physicians Health Study (PHS) (5). Among these PHS participants, Lp(a) levels were determined with a standard clinical ELISA-based method (6).
Genotyping: Genotypes for rs3798220 in the WHS participants were determined by an oligonucleotide ligation procedure that combined PCR amplification of target sequences from 3 ng of genomic DNA with subsequent allele-specific oligonucleotide ligation (7). The ligation products of the two alleles were then separated by hybridization to product specific oligonucleotides, each coupled to spectrally distinct Luminex®100™ xMAP microspheres (Luminex, Austin, Tex.). The captured products were fluorescently labeled with streptavidin R-phycoerythrin (Prozyme, San Leandro, Calif.), sorted on the basis of microsphere spectrum, and detected by a Luminex®100™ instrument (8). Genotypes at rs3798220 in the PHS were determined with a fluorescence-based, allele specific, real-time DNA amplification method as described (ABI, Foster City) (9). For the WHS and PHS populations respectively, the fractions of samples with successful genotype determination were 96.3% and 97.8%. Of the 27,289 women with DNA samples for genotyping, full ascertainment for rs3798220 genotype, Lp(a) levels, age, and occurrence of incident cardiovascular events were available for 25,436. Of these, 24,320 were Caucasian, 468 were African-American, 282 were Asian American, 262 where Hispanic, 62 were Native American, and 42 had unknown ancestry.
Statistical methods: Deviations from Hardy-Weinberg equilibrium were evaluated using a log-likelihood ratio test. […]

## CC(=O)Oc1ccccc1C(=O)O [aspirin, acetylsalicylic acid]
Caucasian WHS women, non-carriers of rs3798220 minor allele (TT)
  relative risk reduction of major vascular events with aspirin: 9%
Caucasian WHS women, rs3798220 heterozygotes, aspirin 100 mg on alternate days vs placebo
  relative risk reduction of coronary revascularization with aspirin: 36%
Caucasian WHS women, rs3798220 heterozygotes
  relative risk reduction of major vascular events with aspirin: 59%
Caucasian non-carriers of rs3798220 minor allele with Lp(a) above the 90th percentile (65.1 mg/dL)
  effect of aspirin on relative risk of vascular events: reduced the relative risk of vascular events
Caucasian non-carriers of rs3798220 minor allele with Lp(a) below the 90th percentile
  effect of aspirin on relative risk of vascular events: minimal effect
Caucasians with Lp(a) levels above the 90th percentile (65.1 mg/dL), aspirin vs placebo
  relative risk reduction for the revascularization endpoint with aspirin: 39%
